Results: patent US8580321B2, “Method for reducing the effects of chemotherapy using flagellin related polypeptides” (priority 2003, dated 2013)

Columns and labels:
[1] = tested on: mice treated with total body gamma radiation; test: Mouse survival after total body gamma irradiation (radioprotection); format: in vivo; details: for 30-day survival, 11 Gy / 30-day survival, 14 Gy: s.c. 5.0 μg/mouse (0.2 mg/kg); for 30-day survival, 11 Gy: 1 hour before 11 Gy; for 30-day survival, 14 Gy: 1 hour before 14 Gy
Method: Whole body irradiation of mice with 15 Gy gamma radiation caused death within 8 days from GI syndrome providing a conventional model of radiation induced damage of GI tract. To test whether flagellin was capable of protecting GI epithelium from IR, we tested the effect of i.v.-injected flagellin on the dynamics of mouse lethality after 15 Gy of radiation. […] Irradiation was done 4 hours post treatment. As expected, control irradiated mice (that received PBS i.v.) died between 5 and 8 days post-treatment. […] Intravenous, intraperitoneal and subcutaneous delivery of 0.2 mg/kg of flagellin followed by 13 Gy irradiation afforded similar degree of protection, leading to 85-90% 30-day survival of mice (data not shown). While not being bound by theory, flagellin may be a radioprotectant due to its activation of NF-κB, which presumably acts as an inhibitor of apoptotic death.
The experiments were done similarly to the above-described ones (FIGS. 14 and 15), however, instead of 15Gy, mice received 10Gy, the dose that caused 100% killing in control group by day 13 (FIG. 6).
In order to further estimate the dependence of radioprotective activity of flagellin on the time of treatment, mice were injected at several time points relative to the moment of gamma-irradiation. Experiments were performed essentially as explained above, using intraperitoneal injection of 5 μg/mouse (0.2 mg/kg) of full-length flagellin or, for control mice, 5 μg/mouse (0.2 mg/kg) of bacterial RNA polymerase. The experiments were performed using the NIH-Swiss mouse strain. […] Only −1 h graph is shown for clarity, however, both timepoints (−1 and −2 h) provide similar degree and dynamics of survival.
We next obtained an estimate of radiation dose-dependent protection for flagellin. As shown above (FIG. 7), treatment with flagellin was sufficient for 100% protection against 10 Gy gamma-irradiation (this dose causes death from hematopoietic syndrome) and 90% 30-day survival at 13 Gy (both hematopoietic and GI syndromes). Experiments were performed as described above, using flagellin 5 μg/mouse (0.2 mg/kg), intraperitoneally injected 1 h before irradiation.
As shown above, full-length flagellin provides protection from both hematopoietic and gastrointestinal syndromes. The radioprotective potential of flagellin fragments was similarly tested after gamma-irradiation with 11 Gy (dose that induces hematopoietic syndrome-associated mortality in mice) or 14 Gy (dose that causes death from GI syndrome). Mice (10 animals per group) were injected subcutaneously with 5.0 μg/mouse (0.2 mg/kg) of flagellin or its fragments, AA′ or BB′, and gamma-irradiated 1 hour later.
In order to explore the limits of radioprotection provided by the AA′ fragment, we irradiated mice with 17 Gy and 20 Gy single doses of total body gamma-radiation.
(§1) We tested the ability of AA′ to protect mice that were exposed to it. A group of 20 NIH-Swiss mice were subcutaneously injected with 5 μg/mouse (0.2 mg/kg) of AA′. A second injection of a equal dose of AA′ was administered after 21 (10 mice) and 28 days (another 10 mice), with the time elapsed being sufficient for formation of antibodies. The second injection of AA′ was followed by 13 Gy of whole-body gamma irradiation (1 h post-injection).
Repetitive irradiation within a short period of time may be common, for example, in space radiation events and in clinical radiotherapy regimens. We tested the ability of the AA′ flagellin fragment to protect mice from sub-lethal (4 treatments of 3 Gy) and 100% lethal (4 treatments of 4 Gy) regimens of fractionated gamma-irradiation. Fragment AA′ or saline buffer was given to NIH-Swiss female mice before every irradiation (once a day for 4 days). AA′ was administered as described above for single-dose irradiation (5 μg/mouse, given subcutaneously 1 h before irradiation). […]
We have extensively confirmed that AA′ protects NIH-Swiss and ICR mice from radiation. […]

[2] = tested on: small intestinal epithelium of irradiated mice; test: Pathomorphological analysis of small intestine and skin after gamma irradiation; format: in vivo, mouse; details: for intestinal morphology 5 days after 14 Gy: pretreated mice, villi/crypt structure; for radiation-induced disappearance of sebaceous glands: skin, 5 days after 14 Gy
Method: Tissue samples of intestinal mucosa were taken 5 days after 14 Gy irradiation from mice pretreated with flagellin and control mice. Control animals were treated with 5.0 μg/mouse (0.2 mg/kg) bacterial RNA-polymerase. […] Tissue samples (small intestine and skin from the back) were also obtained from mice treated with the AA′ fragment. The results shown in FIG. 17 are areas of typical morphology observed over a set of at least 3 mice.
Flagellin (and CBLB502) may induce NF-κB activity via binding to TLR5. Accordingly, CBLB502-mediated radioprotection may be dependent on the presence and activity of TLR5. MOLF/Ei mice are a known natural model of TLR5 deficiency (Sebastiani G., et. al., Genomics. 2000 Mar. 15; 64(3):230-40). To verify that CBLB502-mediated radioprotection is indeed TLR5-dependent, we tested the protection of small intestine from radiation by CBLB502 in MOLF/Ei and NIH-Swiss mice (FIG. 35). Both strains of mice were given 0.2 mg/kg CBLB502 (AA′) or PBS 0.5 hr before 15 Gy of gamma-irradiation. The samples of small intestine were obtained 4 days after irradiation, stained by hematoxylin-eosin and subjected to pathomorphological analysis.

NIH-Swiss mice = format: in vivo, mouse; details: repeated administration
Text: Overall immunogenicity of a protein may determines its suitability for repeated use. Antibodies generated by immune system are capable of reducing the therapeutic activity of the protein and also may induce anaphylactic reaction upon second exposure if IgE antibodies are produced against the protein. Thus, any reduction in the amount and variety of antibodies compared to full-length flagellin is an improvement. Accordingly, after repeated introduction of flagellin or its fragments we monitored; a) efficiency of radioprotection afforded at second exposure; b) local and general allergic reactions; and c) antibody titer.
as §1

NF-κB = test: EMSA of NF-κB translocation / DNA binding in A549 cells; details: for inducing NF-κB translocation: nuclear extracts of treated A549 lung cancer cells
[3] = 0.2 mg/kg 0.5 hr before 15 Gy, samples 4 days after irradiation
[4] = 5 μg/mouse (0.2 mg/kg) i.p. 1 h before 15 Gy
[5] = 5 μg/mouse i.p. 1 h before irradiation, estimate

AA′: flagellin fragment (1-177)-Linker-(402-505), SEQ ID NO: 8
protection against fractionated gamma-irradiation ([1]; 5 μg/mouse s.c. 1 h before every irradiation, 4 treatments of 3 Gy or 4 Gy, NIH-Swiss female mice): significant protection | survival at day 10, Balb/c mice ([1]; 0.2 mg/kg 30 minutes before 10 Gy, vehicle 0%): 100% | time of mortality at 17 Gy ([1]; 17 Gy, control mice 6-7 day mortality): 10 to 15 days | delay of death after supralethal irradiation ([1]; 17 and 20 Gy, versus inactive fragment control): significantly delayed | survival at day 30, all tested strains ([1]; 129/Sv, DBA/2, Balb/c, CD2F1, 0.2 mg/kg 30 minutes before 10 Gy, vehicle 0-25%): 50-100% | effect of NS398 on radioprotection ([1]; LPS 2 mg/kg or AA′ 0.2 mg/kg s.c. 1 hr before 13 Gy, with NS398 1 mg/kg i.p., NIH-Swiss): not | 30-day survival, 11 Gy [1]: 100% | 30-day survival, 14 Gy [1]: 100% | 30-day survival after second exposure to AA′ ([1]; second s.c. injection 0.2 mg/kg after 21 or 28 days, 13 Gy 1 h post-injection, NIH-Swiss): 100% | mortality at 17 Gy ([1]; single dose 17 Gy total body): 100% | mortality at 20 Gy ([1]; single dose 20 Gy total body): 100% | intestinal morphology after 15 Gy, NIH-Swiss (TLR5 wild type) mice [2, 3]: preservation of intestinal morphology | intestinal morphology after 15 Gy, TLR5-deficient MOLF/Ei mice [2, 3]: no improving effect | intestinal morphology 5 days after 14 Gy [2]: near-normal intestinal morphology | radiation-induced disappearance of sebaceous glands [2]: prevented | local allergic reaction or anaphylaxis (NIH-Swiss mice): no local allergic reaction or anaphylaxis | NF-κB Stimulation (NF-κB; A549 cells, 1 μg/ml, 45 min, EMSA of whole cell extracts): Yes | level of NF-κB translocation, fragments versus flagellin (NF-κB; EMSA, A549 cells): comparable | inducing NF-κB translocation (NF-κB; EMSA): capable of inducing NF-κB translocation

flagellin: Salmonella dublin FliC flagellin, 505 amino acids, SEQ ID NO: 1; recombinant full-length protein
7-day survival at 15 Gy [1, 4]: 100% | 30-day survival at 15 Gy [1, 4]: 0% | DMF30 [1, 5]: 1.75-1.8 | LD50/30 (radiation dose, flagellin-treated mice) [1, 5]: 13.5-14 Gy | protection from 10Gy (HP syndrome) ([1]; 5 μg/mouse, 10Gy): complete protection | protection against radiation by gavage delivery ([1]; 50 μg by gavage 1 h before 13 Gy): No protection | 30-day survival, parenteral routes ([1]; 0.2 mg/kg i.v., i.p., i.m. or s.c., 1 hr before 13 Gy, NIH-Swiss): 85-90% | 30-day survival of mice ([1]; 0.2 mg/kg intravenous, intraperitoneal or subcutaneous, followed by 13 Gy): 85-90% | protection against 10 Gy gamma-irradiation ([1]; 10 Gy (hematopoietic syndrome)): 100% | 30-day survival at 13 Gy ([1]; 13 Gy): 90% | protection from 10 Gy ([1]; administered 24 hours before 10 Gy): 100% | survival after 13 Gy irradiation ([1]; i.p. 5 μg/mouse (0.2 mg/kg), injected 1 or 2 hours before, NIH-Swiss mice): ~90% | protection, 4 h timepoint ([1]; i.p. 5 μg/mouse, injected 4 h before 13 Gy, NIH-Swiss): somewhat lower protection | protective effect against 13 Gy induced death ([1]; i.p. 5 μg/mouse, injected 24 hours before 13 Gy): no protective effect | survival after 15 Gy ([1]; i.v., irradiation 4 hours post treatment, 15 Gy, PBS controls died between 5 and 8 days): lived significantly longer | radioprotectant effect from 13Gy ([1]; injected 1-4 h before 13Gy): effective as a radioprotectant | approximate DMF (30-day survival) ([1]; mouse, in vivo): greater than 1.5 | 30-day survival, 11 Gy [1]: 100% | 30-day survival, 14 Gy [1]: 100% | morphology of small intestinal epithelium after 15 Gy ([2]; i.v. 0.25 mg/kg, 15 Gy, HE stained sections): close to normal morphology | intestinal morphology 5 days after 14 Gy [2]: near-normal intestinal morphology | radiation-induced disappearance of sebaceous glands [2]: prevented | local allergic reaction or anaphylaxis (NIH-Swiss mice): no local allergic reaction or anaphylaxis | inducing NF-κB translocation (NF-κB; EMSA): capable of inducing NF-κB translocation
